According to the NIST ThermoML archive (doi:10.1021/acs.jced.8b00466):
± gives the expanded uncertainty stated by the source.

Test: wn = mass fraction of the nth substance listed
Conditions: 102 kPa, Liquid, Vibrating tube method

O=S(=O)(O)O [sulfuric acid] + O
mass density [kg/m3]
Conditions	273.15 K	283.15 K	293.15 K	298.15 K	303.15 K	313.15 K	323.15 K	333.15 K
w1 = 0.0966	1069.26 ± 16	1066.08 ± 16	1062.3 ± 15	1060.23 ± 15	1058.04 ± 15	1053.6 ± 15	1049.23 ± 15	1043.53 ± 15
w1 = 0.1151	1085.84 ± 15	1082.07 ± 15	1077.83 ± 14	1075.55 ± 14	1073.22 ± 14	1068.89 ± 13	1063.56 ± 14	1058.71 ± 13
w1 = 0.1365	1101.81 ± 15	1097.5 ± 15	1092.86 ± 14	1090.39 ± 14	1087.86 ± 14	1082.6 ± 13	1078.45 ± 13	1072.64 ± 13
w1 = 0.1536	1114.2 ± 16	1109.5 ± 15	1104.52 ± 15	1101.94 ± 15	1099.31 ± 15	1093.86 ± 14	1089.88 ± 14	1084.63 ± 14
w1 = 0.1728	1128.95 ± 15	1123.83 ± 15	1118.46 ± 15	1115.73 ± 15	1112.95 ± 14	1107.33 ± 14	1101.93 ± 14	1095.88 ± 14
w1 = 0.192	1145.91 ± 16	1140.32 ± 16	1134.59 ± 16	1131.69 ± 16	1128.88 ± 15	1123.78 ± 15	1118.59 ± 15	1113.22 ± 15
w1 = 0.2112	1159.41 ± 17	1153.51 ± 16	1147.52 ± 16	1144.52 ± 16	1141.48 ± 16	1135.36 ± 16	1129.37 ± 15	1124.62 ± 15
w1 = 0.2304	1177.19 ± 17	1170.92 ± 16	1164.6 ± 16	1161.54 ± 16	1158.39 ± 15	1152.03 ± 15	1148.5 ± 15	1140.31 ± 15
w1 = 0.2409	1185.57 ± 17	1179.14 ± 17	1172.69 ± 16	1169.48 ± 16	1166.27 ± 16	1160.54 ± 16	1154.05 ± 16	1147.47 ± 15
w1 = 0.2688	1209.44 ± 17	1201.63 ± 16	1194.85 ± 16	1191.58 ± 16	1188.22 ± 16	1181.52 ± 16	1174.82 ± 16	1168.95 ± 16
w1 = 0.288	1224.11 ± 17	1217.14 ± 16	1210.18 ± 16	1206.76 ± 16	1203.33 ± 16	1196.6 ± 16	1189.76 ± 16	1183.88 ± 16
w1 = 0.3072	1241.05 ± 16	1233.47 ± 16	1227.15 ± 16	1223.62 ± 16	1220.11 ± 16	1213.75 ± 16	1206.84 ± 16	1200.67 ± 16
w1 = 0.3265	1256.77 ± 17	1249.51 ± 17	1242.27 ± 16	1238.85 ± 16	1235.29 ± 16	1228.03 ± 16	1221.02 ± 16	1214.92 ± 16
w1 = 0.3457	1272.18 ± 17	1264.81 ± 17	1257.51 ± 17	1253.89 ± 17	1250.3 ± 17	1243.38 ± 16	1236.27 ± 16	1230.89 ± 16
w1 = 0.3648	1288.04 ± 17	1280.59 ± 17	1273.21 ± 17	1269.57 ± 17	1265.94 ± 17	1258.73 ± 17	1251.57 ± 17	1244.44 ± 16
w1 = 0.384	1305.68 ± 18	1298.19 ± 17	1290.73 ± 17	1287.05 ± 17	1283.37 ± 17	1276.2 ± 17	1268.99 ± 17	1263.24 ± 17
w1 = 0.4	1319.14 ± 18	1311.55 ± 18	1304.07 ± 18	1300.36 ± 18	1296.68 ± 18	1289.37 ± 18	1282.4 ± 18	1275.2 ± 18
